Assay results: ChEMBL document CHEMBL5058646 (2022)

Key:
[1] = molecular target: Dual specificity mitogen-activated protein kinase kinase 1 (Homo sapiens) (UniProt Q02750); experiment: MAP2K1 SGC Tm panel (DSF); conditions: Compound concentration 20.0 uM
[2] = molecular target: Dual specificity protein kinase CLK3 (Homo sapiens) (UniProt P49761); experiment: CLK3 SGC Tm panel (DSF); conditions: Compound concentration 20.0 uM
[3] = molecular target: T1, Transcriptional regulator Kaiso (Homo sapiens) (UniProt Q86T24); conditions: SUD4, Compound concentration 1.0 uM
T1 sequence (whole entry): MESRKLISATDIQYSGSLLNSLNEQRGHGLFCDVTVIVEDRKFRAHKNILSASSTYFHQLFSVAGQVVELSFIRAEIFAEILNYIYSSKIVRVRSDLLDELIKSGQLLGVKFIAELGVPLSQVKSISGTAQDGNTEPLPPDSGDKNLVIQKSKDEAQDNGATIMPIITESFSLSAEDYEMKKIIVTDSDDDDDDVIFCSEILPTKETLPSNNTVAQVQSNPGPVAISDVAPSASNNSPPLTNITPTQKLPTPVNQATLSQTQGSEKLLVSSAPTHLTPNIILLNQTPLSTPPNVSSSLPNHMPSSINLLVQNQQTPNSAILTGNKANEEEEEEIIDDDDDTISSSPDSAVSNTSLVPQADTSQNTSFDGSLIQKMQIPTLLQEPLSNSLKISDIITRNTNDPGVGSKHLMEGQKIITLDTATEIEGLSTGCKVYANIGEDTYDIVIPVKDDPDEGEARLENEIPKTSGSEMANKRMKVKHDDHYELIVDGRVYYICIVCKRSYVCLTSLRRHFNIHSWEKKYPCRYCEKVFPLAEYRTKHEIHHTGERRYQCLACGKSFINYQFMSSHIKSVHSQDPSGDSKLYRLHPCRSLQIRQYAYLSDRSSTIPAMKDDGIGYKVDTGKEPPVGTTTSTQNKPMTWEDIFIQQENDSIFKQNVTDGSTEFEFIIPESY

[4] = molecular target: 5-hydroxytryptamine receptor 1D (Homo sapiens, UniProt P28221); conditions: Compound concentration 10.0 uM
[5] = molecular target: 5-hydroxytryptamine receptor 5A (Homo sapiens) (UniProt P47898); conditions: Compound concentration 10.0 uM
Sequence of 5-hydroxytryptamine receptor 5A (Homo sapiens) (P47898 whole entry, the tested form may be a part): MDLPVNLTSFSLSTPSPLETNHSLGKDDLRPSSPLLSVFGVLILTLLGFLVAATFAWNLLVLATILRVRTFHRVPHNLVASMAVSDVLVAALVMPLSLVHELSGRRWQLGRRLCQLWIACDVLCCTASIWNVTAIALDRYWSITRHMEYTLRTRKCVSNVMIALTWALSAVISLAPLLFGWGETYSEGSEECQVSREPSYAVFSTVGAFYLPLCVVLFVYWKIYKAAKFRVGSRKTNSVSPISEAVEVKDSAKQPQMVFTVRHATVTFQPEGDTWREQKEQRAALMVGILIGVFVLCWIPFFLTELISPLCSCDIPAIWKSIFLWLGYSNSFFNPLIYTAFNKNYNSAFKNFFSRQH

[6] = molecular target: T2, Zinc finger and BTB domain-containing protein 9 (Homo sapiens) (UniProt Q96C00); conditions: SUD4, Compound concentration 1.0 uM
T2 sequence (whole entry): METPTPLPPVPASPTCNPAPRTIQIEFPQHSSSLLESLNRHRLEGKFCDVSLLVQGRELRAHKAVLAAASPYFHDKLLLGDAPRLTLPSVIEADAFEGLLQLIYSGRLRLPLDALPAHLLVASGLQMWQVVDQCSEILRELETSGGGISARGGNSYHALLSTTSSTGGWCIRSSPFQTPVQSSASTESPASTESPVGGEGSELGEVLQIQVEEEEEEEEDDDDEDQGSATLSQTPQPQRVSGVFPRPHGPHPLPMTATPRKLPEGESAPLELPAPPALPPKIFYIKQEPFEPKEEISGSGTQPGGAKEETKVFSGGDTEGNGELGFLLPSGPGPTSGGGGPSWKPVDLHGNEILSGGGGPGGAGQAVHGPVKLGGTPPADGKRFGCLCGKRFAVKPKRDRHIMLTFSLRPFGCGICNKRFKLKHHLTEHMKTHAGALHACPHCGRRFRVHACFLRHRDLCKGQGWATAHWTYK

[7] = molecular target: Serine/threonine-protein kinase 26 (Homo sapiens) (UniProt Q9P289); experiment: MST4 SGC Tm panel (DSF); conditions: Compound concentration 20.0 uM
Sequence of Serine/threonine-protein kinase 26 (Homo sapiens) (Q9P289 2-416 limits assumed): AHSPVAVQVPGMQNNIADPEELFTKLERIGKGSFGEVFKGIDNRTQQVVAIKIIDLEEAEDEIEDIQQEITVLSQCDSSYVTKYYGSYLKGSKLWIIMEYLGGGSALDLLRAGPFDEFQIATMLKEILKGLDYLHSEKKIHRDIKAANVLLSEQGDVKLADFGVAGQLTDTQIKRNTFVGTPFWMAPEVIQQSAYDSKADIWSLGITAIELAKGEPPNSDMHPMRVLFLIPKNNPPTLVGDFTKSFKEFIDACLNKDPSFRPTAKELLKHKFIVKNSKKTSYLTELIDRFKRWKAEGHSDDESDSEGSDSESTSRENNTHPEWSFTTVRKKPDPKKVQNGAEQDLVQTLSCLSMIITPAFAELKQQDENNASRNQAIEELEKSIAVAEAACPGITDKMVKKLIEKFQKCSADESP

[8] = molecular target: Serine/threonine-protein kinase 3 (Homo sapiens) (UniProt Q13188); experiment: STK3 SGC Tm panel (DSF); conditions: Compound concentration 20.0 uM
Sequence of Serine/threonine-protein kinase 3 (Homo sapiens) (Q13188 whole entry): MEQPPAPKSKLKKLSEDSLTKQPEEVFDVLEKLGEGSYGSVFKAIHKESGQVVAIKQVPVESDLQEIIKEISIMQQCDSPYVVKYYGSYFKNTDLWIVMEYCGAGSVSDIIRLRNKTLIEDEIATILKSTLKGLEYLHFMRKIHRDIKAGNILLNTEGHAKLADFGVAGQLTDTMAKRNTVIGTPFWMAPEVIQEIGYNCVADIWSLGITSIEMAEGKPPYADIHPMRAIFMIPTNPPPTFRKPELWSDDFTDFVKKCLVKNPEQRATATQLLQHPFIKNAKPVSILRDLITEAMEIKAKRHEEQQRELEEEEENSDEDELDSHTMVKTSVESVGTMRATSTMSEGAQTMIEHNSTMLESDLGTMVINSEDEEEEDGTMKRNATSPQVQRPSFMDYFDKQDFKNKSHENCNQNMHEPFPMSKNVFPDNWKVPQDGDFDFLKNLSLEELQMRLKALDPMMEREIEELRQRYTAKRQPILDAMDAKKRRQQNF

[9] = molecular target: Histamine H4 receptor (Homo sapiens) (UniProt Q9H3N8); conditions: Compound concentration 10.0 uM
[10] = molecular target: BMP-2-inducible protein kinase (Homo sapiens) (UniProt Q9NSY1); experiment: BMP2K SGC Tm panel (DSF); conditions: Compound concentration 20.0 uM
[11] = molecular target: Serine/threonine-protein kinase RIO1 (Homo sapiens) (UniProt Q9BRS2); experiment: RIOK1 SGC Tm panel (DSF); conditions: Compound concentration 20.0 uM
Sequence of Serine/threonine-protein kinase RIO1 (Homo sapiens) (Q9BRS2 whole entry): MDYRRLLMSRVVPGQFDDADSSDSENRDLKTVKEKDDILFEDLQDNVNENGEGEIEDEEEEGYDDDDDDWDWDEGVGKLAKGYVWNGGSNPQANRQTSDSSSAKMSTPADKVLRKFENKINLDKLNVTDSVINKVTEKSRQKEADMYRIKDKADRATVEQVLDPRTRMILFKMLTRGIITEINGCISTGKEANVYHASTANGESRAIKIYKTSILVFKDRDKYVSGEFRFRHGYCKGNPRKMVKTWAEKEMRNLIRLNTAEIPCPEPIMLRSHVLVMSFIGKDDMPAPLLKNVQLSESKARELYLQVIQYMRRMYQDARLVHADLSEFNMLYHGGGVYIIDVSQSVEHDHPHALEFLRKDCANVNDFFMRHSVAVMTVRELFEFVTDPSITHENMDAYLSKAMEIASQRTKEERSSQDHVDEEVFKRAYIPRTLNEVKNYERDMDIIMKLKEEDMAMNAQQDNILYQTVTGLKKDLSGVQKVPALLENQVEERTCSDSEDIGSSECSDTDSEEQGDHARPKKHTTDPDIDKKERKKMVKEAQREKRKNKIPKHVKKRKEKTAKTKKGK

[12] = molecular target: Serine/threonine-protein kinase Nek2 (Homo sapiens) (UniProt P51955); experiment: NEK2 SGC Tm panel (DSF); conditions: Compound concentration 20.0 uM
Sequence of Serine/threonine-protein kinase Nek2 (Homo sapiens) (P51955 whole entry): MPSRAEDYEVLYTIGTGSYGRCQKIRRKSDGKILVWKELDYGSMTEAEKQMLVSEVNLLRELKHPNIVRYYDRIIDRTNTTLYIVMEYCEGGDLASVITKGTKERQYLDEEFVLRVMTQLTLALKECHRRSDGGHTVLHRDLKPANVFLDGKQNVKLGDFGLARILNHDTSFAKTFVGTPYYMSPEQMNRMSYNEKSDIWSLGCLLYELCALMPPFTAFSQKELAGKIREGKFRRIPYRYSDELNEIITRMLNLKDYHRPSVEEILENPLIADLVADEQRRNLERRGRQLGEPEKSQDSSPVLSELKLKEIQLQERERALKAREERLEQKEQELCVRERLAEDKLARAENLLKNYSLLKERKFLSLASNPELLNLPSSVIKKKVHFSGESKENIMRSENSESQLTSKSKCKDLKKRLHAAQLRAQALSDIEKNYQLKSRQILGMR

[13] = molecular target: 5-hydroxytryptamine receptor 2C (Homo sapiens) (UniProt P28335); conditions: Compound concentration 10.0 uM
Sequence of 5-hydroxytryptamine receptor 2C (Homo sapiens) (P28335 whole entry): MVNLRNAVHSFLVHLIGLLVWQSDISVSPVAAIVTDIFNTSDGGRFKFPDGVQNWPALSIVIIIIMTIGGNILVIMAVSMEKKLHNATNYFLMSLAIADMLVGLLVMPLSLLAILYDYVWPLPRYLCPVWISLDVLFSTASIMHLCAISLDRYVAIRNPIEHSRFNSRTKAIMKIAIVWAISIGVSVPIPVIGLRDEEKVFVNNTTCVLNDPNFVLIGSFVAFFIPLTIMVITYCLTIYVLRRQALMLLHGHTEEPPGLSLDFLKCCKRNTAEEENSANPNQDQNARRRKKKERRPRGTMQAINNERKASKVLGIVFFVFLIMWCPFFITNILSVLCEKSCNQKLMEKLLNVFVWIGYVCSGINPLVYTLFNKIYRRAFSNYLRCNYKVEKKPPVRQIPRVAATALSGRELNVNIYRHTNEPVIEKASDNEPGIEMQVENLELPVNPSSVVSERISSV

[14] = molecular target: AP2-associated protein kinase 1 (Homo sapiens) (UniProt Q2M2I8); experiment: AAK1 SGC Tm panel (DSF); conditions: Compound concentration 20.0 uM
[15] = molecular target: T3, Zinc finger and BTB domain-containing protein 10 (Homo sapiens) (UniProt Q96DT7); conditions: OCI-Ly1, Compound concentration 1.0 uM
T3 sequence (whole entry): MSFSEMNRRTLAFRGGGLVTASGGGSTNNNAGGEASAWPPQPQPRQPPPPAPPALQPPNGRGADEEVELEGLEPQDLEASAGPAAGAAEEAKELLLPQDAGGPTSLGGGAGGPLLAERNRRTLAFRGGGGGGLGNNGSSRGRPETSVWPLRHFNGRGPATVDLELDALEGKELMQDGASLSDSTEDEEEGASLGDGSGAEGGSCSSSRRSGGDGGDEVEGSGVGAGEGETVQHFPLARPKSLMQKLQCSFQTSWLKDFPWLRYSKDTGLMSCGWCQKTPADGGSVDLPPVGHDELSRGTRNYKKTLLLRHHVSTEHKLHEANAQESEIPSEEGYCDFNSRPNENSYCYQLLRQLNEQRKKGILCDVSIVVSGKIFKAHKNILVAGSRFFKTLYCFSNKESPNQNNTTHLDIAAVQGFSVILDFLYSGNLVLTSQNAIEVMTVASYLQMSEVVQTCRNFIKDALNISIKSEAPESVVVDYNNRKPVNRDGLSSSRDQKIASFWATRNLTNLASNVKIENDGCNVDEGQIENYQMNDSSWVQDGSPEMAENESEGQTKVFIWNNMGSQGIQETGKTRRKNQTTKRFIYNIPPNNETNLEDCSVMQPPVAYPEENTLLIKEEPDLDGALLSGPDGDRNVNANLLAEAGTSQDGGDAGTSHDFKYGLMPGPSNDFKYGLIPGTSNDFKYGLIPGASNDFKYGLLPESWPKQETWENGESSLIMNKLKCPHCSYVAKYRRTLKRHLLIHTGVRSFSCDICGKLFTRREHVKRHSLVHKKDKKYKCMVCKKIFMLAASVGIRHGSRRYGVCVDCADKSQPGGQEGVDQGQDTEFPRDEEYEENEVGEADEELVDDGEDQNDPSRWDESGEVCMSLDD

[16] = molecular target: Serine/threonine-protein kinase pim-1 (Homo sapiens) (UniProt P11309); experiment: PIM1 SGC Tm panel (DSF); conditions: Compound concentration 20.0 uM
Sequence of Serine/threonine-protein kinase pim-1 (Homo sapiens) (P11309 whole entry, looked up): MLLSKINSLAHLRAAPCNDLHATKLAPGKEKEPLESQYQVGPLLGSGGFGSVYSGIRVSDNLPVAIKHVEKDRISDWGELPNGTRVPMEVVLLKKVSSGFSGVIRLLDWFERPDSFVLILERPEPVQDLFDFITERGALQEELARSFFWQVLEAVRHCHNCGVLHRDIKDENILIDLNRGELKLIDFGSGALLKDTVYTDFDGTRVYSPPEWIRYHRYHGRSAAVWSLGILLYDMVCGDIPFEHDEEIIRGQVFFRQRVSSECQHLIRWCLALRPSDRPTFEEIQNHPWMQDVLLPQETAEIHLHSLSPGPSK

[17] = molecular target: SRSF protein kinase 1 (Homo sapiens) (UniProt Q96SB4); experiment: SRPK1 SGC Tm panel (DSF); conditions: Compound concentration 20.0 uM
Sequence of SRSF protein kinase 1 (Homo sapiens) (Q96SB4 whole entry): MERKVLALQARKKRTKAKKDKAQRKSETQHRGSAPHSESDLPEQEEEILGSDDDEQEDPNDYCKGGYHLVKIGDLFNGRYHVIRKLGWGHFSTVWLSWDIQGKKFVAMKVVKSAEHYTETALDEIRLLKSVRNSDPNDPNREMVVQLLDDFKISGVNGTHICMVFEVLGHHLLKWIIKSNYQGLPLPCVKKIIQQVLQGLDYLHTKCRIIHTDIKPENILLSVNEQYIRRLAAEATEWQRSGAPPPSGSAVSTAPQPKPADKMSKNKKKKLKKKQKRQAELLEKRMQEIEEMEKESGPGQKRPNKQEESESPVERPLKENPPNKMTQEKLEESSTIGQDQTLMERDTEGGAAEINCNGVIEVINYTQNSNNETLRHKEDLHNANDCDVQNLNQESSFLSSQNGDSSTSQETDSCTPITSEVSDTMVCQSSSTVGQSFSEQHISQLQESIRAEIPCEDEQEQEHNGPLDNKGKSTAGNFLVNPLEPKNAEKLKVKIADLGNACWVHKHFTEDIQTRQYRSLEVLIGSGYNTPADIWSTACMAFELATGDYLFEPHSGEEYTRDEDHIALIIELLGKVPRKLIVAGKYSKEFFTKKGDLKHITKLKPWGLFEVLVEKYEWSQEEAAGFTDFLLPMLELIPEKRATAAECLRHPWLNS

[18] = molecular target: Cyclin-dependent kinase 16 (Homo sapiens) (UniProt Q00536); experiment: PCTK1 SGC Tm panel (DSF); conditions: Compound concentration 20.0 uM
Sequence of Cyclin-dependent kinase 16 (Homo sapiens) (Q00536 whole entry): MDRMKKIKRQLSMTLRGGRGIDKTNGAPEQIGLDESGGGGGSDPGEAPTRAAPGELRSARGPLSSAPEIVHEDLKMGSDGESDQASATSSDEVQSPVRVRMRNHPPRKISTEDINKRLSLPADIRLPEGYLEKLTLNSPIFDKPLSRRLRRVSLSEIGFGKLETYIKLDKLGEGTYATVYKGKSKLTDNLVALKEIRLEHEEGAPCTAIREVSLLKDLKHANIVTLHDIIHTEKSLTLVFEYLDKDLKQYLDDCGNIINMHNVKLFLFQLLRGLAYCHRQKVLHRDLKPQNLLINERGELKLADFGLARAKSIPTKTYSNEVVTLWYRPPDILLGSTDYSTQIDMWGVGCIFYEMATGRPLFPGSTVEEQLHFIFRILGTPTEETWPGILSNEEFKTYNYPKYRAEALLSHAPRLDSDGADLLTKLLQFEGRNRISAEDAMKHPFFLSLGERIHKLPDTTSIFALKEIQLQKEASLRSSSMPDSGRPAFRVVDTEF

Sequence of Dual specificity protein kinase CLK3 (Homo sapiens) (P49761 whole entry, looked up): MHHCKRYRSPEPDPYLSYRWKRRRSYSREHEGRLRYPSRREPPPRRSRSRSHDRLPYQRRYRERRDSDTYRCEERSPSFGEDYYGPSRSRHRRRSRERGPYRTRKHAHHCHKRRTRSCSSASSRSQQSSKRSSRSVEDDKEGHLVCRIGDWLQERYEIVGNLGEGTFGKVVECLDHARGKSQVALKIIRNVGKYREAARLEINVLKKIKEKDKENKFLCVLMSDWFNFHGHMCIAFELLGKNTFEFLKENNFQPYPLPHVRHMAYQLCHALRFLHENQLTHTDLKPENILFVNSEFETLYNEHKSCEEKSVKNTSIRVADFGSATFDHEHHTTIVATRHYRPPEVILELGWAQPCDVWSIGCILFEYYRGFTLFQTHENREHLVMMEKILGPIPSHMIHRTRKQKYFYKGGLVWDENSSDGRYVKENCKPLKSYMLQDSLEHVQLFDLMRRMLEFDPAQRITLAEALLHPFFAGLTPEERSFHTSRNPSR

## C[C@@H]1CN(c2ncc(Cl)c(Nc3ccc4c(c3)n(CCC(C)(C)O)c(=O)n4C)n2)C[C@H](C)C1(F)F
[1]
  Tm: 45 °C
[2]
  Tm: 34 °C
[3]
  LogFC: -0.022
[4]
  inhibition: 56.5%
[5]
  inhibition: 13.2%
[6]
  LogFC: 0.0873
[7]
  Tm: 44 °C
[8]
  Tm: 47 °C
[9]
  inhibition: -0.79%
[10]
  Tm: 43 °C
[11]
  Tm: 40 °C
[12]
  Tm: 40 °C
[13]
  inhibition: 16.1%
[14]
  Tm: 47 °C
[15]
  LogFC: 0.103
[16]
  Tm: 41 °C
[17]
  Tm: 45 °C
[18]
  Tm: 52 °C
